# How the values were obtained:
# NFAT = assay: Cellular NFAT-reporter-gene assay (GloResponse NFAT-RE-luc2P HEK293); format: cell-based; details: Homo sapiens, HEK293, 16 h, read-out: NFAT-reporter-gene assay IC50
# Description: An antigen specific stimulation of the T-cell receptor causes the activation of transcription factors such as e.g. NFAT (nuclear factor of activated T cells). NFAT-activation is essential for the expression of interleukine-2 and therefore, for the proliferation of T-cells as part of the immune response. A stable NFAT-reporter-gene cell line enables the analysis of modulators of the NFAT-pathways and thus, the evaluation of the immunosuppressive effects of compounds.
# The stably transfected reporter-gene cell line GloResponse NFAT-RE-luc2P HEK293 (promega Corp. USA) was cultivated in DMEM (10% FCS; 2 mM Glutamin; 200 μg/ml Hygromycin) and seeded on 96-well plates (200.000 cells/well). The compounds to be tested were either added to the cells in a 2-point-determination (5 μM and 10 μM) or an ICH-determination (concentration series 4.1 nM-1 μM). […] Immediately thereafter the cells were stimulated with 5 nM PMA and 2 μM ionomycin and incubated over 16 h (37° C.; cell incubator). This double stimulation simulates a T-cell receptor stimulation and causes a NFAT activation with subsequently expression of the luciferase-reporter-gene. The amount of luciferase was quantitatively determined after 16 h by measurement of the bioluminescence by Bright-Glo Luciferase-Assay-System (Promega Corp., USA). The averaged luciferase values of the vehicle treated (1% DMSO) and with PMA/ionomycin stimulated cells were used as positive control and reference value.
# Jurkat cells = assay: Determination of cell permeability in Jurkat cells (displacement of fluorescent CsA derivative, FACS); format: cell-based; details: FIG. 1; in comparison to CsA
# Protocol: Jurkat cells of the cell culture have been harvested and centrifuged. The medium has been discarded and the cells were washed once with RPM′ (without phenol red, 10% FCS, Hepes, gentamicin). The cells were re-suspended in a medium adjusted to a cell concentration of 1.0×10^5-3.0×10^5 cells/ml and subsequently incubated with a fluorescent CsA derivative (0.5 μM-2.0 μM) at 37° C., 5-10% CO2 and 100% humidity. The cells were then centrifuged, the medium discarded and the cell pellet was washed once with medium and the cells were resuspended in a new medium. Subsequently, the cells were incubated for a half hour to 4 hours with the corresponding concentration (0.01 μM to 100 μM) of the test compound to be analyzed and then centrifuged again. The medium was discarded; it was once washed with 1 ml PBS and suspended in 500 μl PBS. The analysis was carried out using FACS-measurement by quantification of the replaced fluorescent CsA-derivative. The reference (without inhibitor) was thereby set 100%.
# [1] = Determination of cell permeability in PAMPA cell membranes (Parallel Artificial Membrane Permeability Assay); format: in vitro ADME; details: 500 μM, Hepes buffer pH 7.4, 16 hours, room temperature
# Protocol: After an incubation of 16 hours at room temperature in a liquid chamber the optical density of the solution after filtration has been measured in a range of 250 to 500 nm in steps of 10 nm each. The percentage “Flux” has been calculated from the integral of the graph between 250 and 500 nm and standardized on the optical density determined in the parallel reaction without artificial membrane.
# [2] = tested on: ovalbumin sensitized mice (BALB/c-strain); assay: Asthma evaluations (ovalbumin sensitized mice); format: in vivo; details: 200 μg i.p. at days 7, 9 and 11
# Protocol: By application of ovalbumin together with aluminium hydroxide an immune response to ovalbumin is provoked. The immune response may be traced using the immigrated T-helper cell population (CD4+) and the immigrated eosinophilic granulocytes. Female mice (BALB/c-strain) were sensitized by intraperitoneal (i.p.) application of 50 μg ovalbumin solved in phosphate buffer (PBS) ((OVA) plus 100 μl aluminium hydroxide) with a total volume of 200 μl per mouse on day 0. 100 μg OVA in PBS (50 μl total volume) was intranasal administered to the ovalbumin sensitized mice under mild anesthesia (isoflurane) at days 7-10. These animals were divided into groups which obtained in addition either 200 μg test compound in PBS (i.p.), only PBS (diluent) or no further additive (−) at days 7, 9 and 11. At day 12 all animals were sacrificed by CO2 exposition and cells of the bronchial tract were obtained by bronchial lavage (BAL) with threefold washing with 1 ml of cold PBS each using a cannula introduced into the trachea. The cells obtained by BAL were then stained twice (a) with Cy-chrome conjugated anti-mouse CD4 antibodies and (b) with FITC conjugated anti-mouse CD62L antibodies. Subsequently, the cells were analyzed by FACS. Effector/memory CD4^+ T-cells were differentiated as CD4^+/CD62L^− lymphocytes and eosinophilic cells using their stray light characteristics (FSC/CCS).
# in vitro = details: human, Caco-2, pH 7.4
# calcineurin = calcineurin (Homo sapiens, UniProt P62937+P63098+Q08209); assay: Inhibition of the phosphatase activity of calcineurin (scintillation-proximity-assay, in presence of Cyp18);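 further: calcineurin dephosphorylation of a ³³P-labelled RII phosphopeptide, captured on streptavidin-coated wells and read by scintillation counting, with uninhibited enzyme activity taken as 100%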
# Protocol: The measurement was carried out by incubation of 10 μMol of the biotinylated phosphopeptide [sequence]pSer-Val-Ala-Ala-Glu (MW=2192.0) (RH-peptide) marked with ^33P in a sample buffer (40 mM Tris-HCl, pH 7.5, 100 mM NaCl, 6 mM MgCl2, 0.5 mM dithiothreitol, 1 mM. CaCl2, 0.1 mg/ml bovine serum albumin) in presence of 50 nM calmodulin and 1.32 nM calcineurin at 30° C. for 20 min in a 96 well micro titer plate (Costar, Bodenheim, Germany). The total volume of the assay/well was 100 μl. After this reaction time a 90 μl aliquot of the reaction mixture was transferred into a scintillation cavity coated with streptavidin and incubated for 20 min at 22° C. After a washing step the RII phosphopeptide-associated ^33P radioactivity was measured in a MicroBeta Top Counter (Wallac) and the enzyme activity was indicated as average value of three measurements±S.D. The uninhibited dephosphorylation activity has been set on 100%.
# [3] = molecular target: recombinant human wild type Cyp18 (Cyp18 wt) (Homo sapiens, UniProt P62937); assay: biochemical
# Sequence of recombinant human wild type Cyp18 (Cyp18 wt) (P62937 whole entry): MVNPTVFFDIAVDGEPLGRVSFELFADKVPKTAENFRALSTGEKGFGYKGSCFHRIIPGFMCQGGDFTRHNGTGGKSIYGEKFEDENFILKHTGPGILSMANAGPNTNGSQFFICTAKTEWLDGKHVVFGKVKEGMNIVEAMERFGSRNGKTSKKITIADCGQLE
# Protocol: The determination was performed on a UV/Vis spectrometer at 10° C. cuvette temperature, whereby the device is operated at 390 nm in kinetic-mode (measurement buffer: 35 mM HEPES/NaOH pH 7.8 (AppliChem A1069)). 0.58 nM recombinant human wild type Cyp18 (Cyp18 wt), 2.33 nM bovine serum albumin (BSA) and 1 mg/ml chymotrypsin (Merck) solved in 35 mM HEPES/NaOH pH 7.8 as well as different concentration of each test substance, where appropriate, were in the cuvette. The reaction was started with a stock solution of Suc-Ala-Ala-Pro-Phe-4-nitroanilide (Bachem, 10 mg/ml DMSO) as substrate so that a final substrate concentration of 32 μM resulted. The extinction-time-curves were evaluated after expiry of the fast phase of the reaction i.e. after approximately 60 seconds according to a rate equation of a first-order reaction.
smiles,measurement,setting,value
CC[C@@H]1NC(=O)[C@H]([C@H](O)[C@H](C)Cc2nc3ccc(C(=O)O)cc3[nH]2)N(C)C(=O)[C@H](C(C)C)N(C)C(=O)[C@H](CC(C)C)N(C)C(=O)[C@H](CC(C)C)N(C)C(=O)[C@@H](C)NC(=O)[C@H](C)NC(=O)[C@H](CC(C)C)N(C)C(=O)[C@H](C(C)C)NC(=O)[C@H](CC(C)C)N(C)C(=O)CN(C)C1=O [Compound 5],IC50,NFAT,> 10 µM
same,Cell permeability in Jurkat cells,Jurkat cells,not cell permeable
same,Cell permeability in PAMPA-cell membranes,[1],1.7 % flux
same,Number of eosinophilic granulocytes (eosinophils) in bronchial lavage,[2]; FIG. 3,reduced very significantly
same,Number of eosinophilic granulocytes (eosinophils) in lung tissue,[2]; FIG. 4,reduced very significantly
same,Number of CD4 positive T-cells in bronchial lavage (BAL),[2]; FIG. 5,reduced very significantly
same,Number of CD4 positive T-cells in the lung tissue,[2]; FIG. 6,reduced very significantly
same,"Papp A→B at 2 h, 5 μM",in vitro,0.17 ×10⁻⁶ cm/s
same,"Papp B→A at 2 h, 5 μM",in vitro,0.13 ×10⁻⁶ cm/s
same,IC50,calcineurin,> 10 µM
CC[C@@H]1NC(=O)[C@H]([C@H](O)[C@H](C)Cc2nc3cc(C(=O)O)ccc3n2C)N(C)C(=O)[C@H](C(C)C)N(C)C(=O)[C@H](CC(C)C)N(C)C(=O)[C@H](CC(C)C)N(C)C(=O)[C@@H](C)NC(=O)[C@H](C)NC(=O)[C@H](CC(C)C)N(C)C(=O)[C@H](C(C)C)NC(=O)[C@H](CC(C)C)N(C)C(=O)CN(C)C1=O [Compound 36],IC50,NFAT,> 10 µM
same,Cell permeability in PAMPA-cell membranes,[1],0.7 % flux
same,"Papp A→B at 2 h, 5 μM",in vitro,0.3 ×10⁻⁶ cm/s
same,IC50,calcineurin,> 10 µM
CC[C@@H]1NC(=O)[C@H]([C@H](O)[C@H](C)Cc2nc3cc(S(=O)(=O)O)ccc3[nH]2)N(C)C(=O)[C@H](C(C)C)N(C)C(=O)[C@H](CC(C)C)N(C)C(=O)[C@H](CC(C)C)N(C)C(=O)[C@@H](C)NC(=O)[C@H](C)NC(=O)[C@H](CC(C)C)N(C)C(=O)[C@H](C(C)C)NC(=O)[C@H](CC(C)C)N(C)C(=O)CN(C)C1=O [Compound 22],IC50,NFAT,> 10 µM
same,Cell permeability in PAMPA-cell membranes,[1],4.1 % flux
same,"Papp A→B at 2 h, 5 μM",in vitro,0.9 ×10⁻⁶ cm/s
same,IC50,[3],0.0087 µM
same,IC50,calcineurin,> 10 µM
CC[C@@H]1NC(=O)[C@H]([C@H](O)[C@H](C)Cc2nc3cc(C(=N)N)ccc3[nH]2)N(C)C(=O)[C@H](C(C)C)N(C)C(=O)[C@H](CC(C)C)N(C)C(=O)[C@H](CC(C)C)N(C)C(=O)[C@@H](C)NC(=O)[C@H](C)NC(=O)[C@H](CC(C)C)N(C)C(=O)[C@H](C(C)C)NC(=O)[C@H](CC(C)C)N(C)C(=O)CN(C)C1=O [Compound 35],IC50,NFAT,> 10 µM
same,Cell permeability in PAMPA-cell membranes,[1],4 % flux
same,"Papp A→B at 2 h, 5 μM",in vitro,< 0.35 ×10⁻⁶ cm/s
same,"Papp B→A at 2 h, 5 μM",in vitro,< 0.46 ×10⁻⁶ cm/s
same,IC50,[3],0.012 µM
same,IC50,calcineurin,4.8 µM
CC[C@@H]1NC(=O)[C@H]([C@H](O)[C@H](C)Cc2nc3cc(-c4nnn[nH]4)ccc3[nH]2)N(C)C(=O)[C@H](C(C)C)N(C)C(=O)[C@H](CC(C)C)N(C)C(=O)[C@H](CC(C)C)N(C)C(=O)[C@@H](C)NC(=O)[C@H](C)NC(=O)[C@H](CC(C)C)N(C)C(=O)[C@H](C(C)C)NC(=O)[C@H](CC(C)C)N(C)C(=O)CN(C)C1=O [Compound 33],IC50,NFAT,> 10 µM
same,Cell permeability in PAMPA-cell membranes,[1],0.25 % flux
same,"Papp A→B at 2 h, 5 μM",in vitro,< 0.15 ×10⁻⁶ cm/s
same,"Papp B→A at 2 h, 5 μM",in vitro,< 0.15 ×10⁻⁶ cm/s
same,IC50,calcineurin,> 10 µM
CC[C@@H]1NC(=O)[C@H]([C@H](O)[C@H](C)Cc2nc3cc(NC(=N)N)ccc3[nH]2)N(C)C(=O)[C@H](C(C)C)N(C)C(=O)[C@H](CC(C)C)N(C)C(=O)[C@H](CC(C)C)N(C)C(=O)[C@@H](C)NC(=O)[C@H](C)NC(=O)[C@H](CC(C)C)N(C)C(=O)[C@H](C(C)C)NC(=O)[C@H](CC(C)C)N(C)C(=O)CN(C)C1=O [Compound 46],IC50,NFAT,> 10 µM
same,Cell permeability in PAMPA-cell membranes,[1],13.5 % flux
same,"Papp A→B at 2 h, 5 μM",in vitro,0.4 ×10⁻⁶ cm/s
same,IC50,[3],0.0131 µM
same,IC50,calcineurin,6.63 µM
CC[C@@H]1NC(=O)[C@H]([C@H](O)[C@H](C)Cc2nc3cc(S(N)(=O)=O)ccc3[nH]2)N(C)C(=O)[C@H](C(C)C)N(C)C(=O)[C@H](CC(C)C)N(C)C(=O)[C@H](CC(C)C)N(C)C(=O)[C@@H](C)NC(=O)[C@H](C)NC(=O)[C@H](CC(C)C)N(C)C(=O)[C@H](C(C)C)NC(=O)[C@H](CC(C)C)N(C)C(=O)CN(C)C1=O [Compound 34],IC50,NFAT,> 10 µM
same,Cell permeability in PAMPA-cell membranes,[1],19.9 % flux
same,"Papp A→B at 2 h, 5 μM",in vitro,< 0.6 ×10⁻⁶ cm/s
same,"Papp B→A at 2 h, 5 μM",in vitro,0.87 ×10⁻⁶ cm/s
same,IC50,[3],0.0164 µM
same,IC50,calcineurin,6.4 µM

# From US9453051B2, “Cyclosporin derivatives” (priority 2011, dated 2016)
